Patent publication US7745390B2, “Antimicrobial peptides” (priority 2005, dated 2010)
Converted amounts (≈) assume the structure as drawn. Square brackets hold non-standard residues; d marks the D form. Peptide text beside a SMILES is read from it.

Assays:
bacterial strains = assay: organism not typed; type: cell-based
Description: (§1) Three preferred peptides G11.46, G12.21 and G14.15, discussed above, were further tested for antimicrobial efficacy under various conditions using the 10% FCS/DMEM assay as described under CFU assay. The incubation times with the bacteria and peptide was three hours, at which time the bacteria were diluted and plated on agar. […] The MIC for each compound is highlighted.
Table 9 below repeats some data presented above in Tables 6, 7, and 8.

bacteria = assay: Activity in DMEM and RPMI media (lysis of bacteria); type: cell-based; details: either 10 mM phosphate buffer or DMEM
Description: (§2) The CFU assay is the “gold standard” for evaluating antibiotics. Briefly, bacteria are grown overnight in rich medium, such as LB, and then diluted and grown in log phase for 2-4 hours. Cultures are set up as above, with the initial culture media being 10 mM phosphate buffer/0.03% LB; DMEM or RPMI; or DMEM or RPMI plus 10% serum (fetal calf, human, or mouse). After various periods of time, but generally 3 hours or less, aliquots are removed, diluted in LB at various dilutions, and plated on LB agar plates. Plates are incubated overnight at 37° C. and counted on an automatic colony counter.
In the column “Active in DMEM”, a blank means no activity. MAP stands for multiple antigenic peptide, where a number of identical peptide chains are synthesized and joined to a common core (like a dendrimer).
The peptides listed in Table 2 were tested in DMEM and RPMI, media that approximate blood and tissue conditions in vivo and those that were active under these conditions are listed in the last column (active in DMEM). […] No peptides that were all L-isomer peptides lysed bacteria in DMEM supplemented with serum.
The hydrophobic moment is a measure of amphipathicity and indicates how well the hydrophobic residues fall on one side of the helix while the hydrophilic residues fall on the opposite side is shown in column 7. This was determined using the Membrane Explorer Program (http://blanco.biomol.uci.edu/mpex/). A high number indicates a high hydrophobic moment. Column 8 again (like Table 2) indicates which of these peptides is active in DMEM.

Salmonella = type: cell-based, S. typhimurium; details: pH 7.2
How it was run: (§3)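 First, peptides in 10 mM phosphate pH 7.2 with 0.03% LB meet bacteria (~5×10^6 CFU/ml). Second, incubation runs 3 h at 37 °C. Third, LB is added and plates grow overnight before OD600 reading.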

E. coli DH5a = type: cell-based; details: DH5a
How it was run: as §3

B. cereus [1] = type: cell-based; details: pH 7.2
How it was run: as §3

Staphylococcus aureus = assay: CFU assay in 10% FCS/DMEM; type: cell-based; details: 3 hrs
Description: as §2, §1

B. cereus [2] = assay: CFU assay in 10% FCS/DMEM; type: cell-based; details: 3 hrs
Description: as §2, §1

E. coli = assay: CFU assay in 10% FCS/DMEM; type: cell-based; details: 3 hrs
Description: as §2, §1

Salmonella typhimurium = assay: CFU assay in 10% FCS/DMEM; type: cell-based; details: 3 hrs
Description: as §2, §1

[3] = test system: antibiotic resistant bacteria obtained from clinical isolates; assay: Susceptibility of antibiotic resistant clinical isolates in DMEM with or without serum; type: cell-based
Description: In addition to the data given above, the susceptibility of a panel of antibiotic resistant bacteria obtained from clinical isolates was tested. All of these are killed by the G11.46, G12.21, and G14.15 in DMEM with or without serum.

candida albicans SC5314 = assay: Percent survival of Candida albicans in phosphate buffer; type: cell-based; design: dose or concentration left out as unconfirmed; details: 37° C., 90 min. incubation
Text: Germ tube formation is essential to Candida toxicity, so agents that prevent this (even in the absence of killing the organism) could have significant activity in vivo.

CSCC[C@H](NC(=O)[C@H](Cc1ccccc1)NC(=O)[C@@H](CCCNC(=N)N)NC(=O)[C@@H](CCCNC(=N)N)NC(=O)[C@H](CO)NC(=O)[C@@H](NC(=O)[C@@H](CCCNC(=N)N)NC(=O)[C@@H](CCCNC(=N)N)NC(=O)[C@@H](CCCNC(=N)N)NC(=O)[C@@H](CCCNC(=N)N)NC(=O)[C@@H](CCCNC(=N)N)NC(=O)[C@@H](CCCNC(=N)N)NC(=O)[C@H](N)CCCNC(=N)N)C(C)C)C(=O)N[C@H](CCCNC(=N)N)C(=O)N[C@H](CCCNC(=N)N)C(=O)O [Peptide G11.46, rrrrrrrVSrrFMrr] (H-[dR][dR][dR][dR][dR][dR][dR]VS[dR][dR]FM[dR][dR]-OH; N-terminus and C-terminus assumed)
MIC (bacterial strains; ATCC#25922, 3 h): 0.32 to 0.63 µM | MIC (bacterial strains; ATCC#29213, 3 h): 0.04 to 0.08 µM | MIC (bacterial strains; ATCC#53522, 3 h): 0.02 µM (≈ 0.044 µg/mL) | MIC (bacterial strains; SL1344, 3 h): 0.63 to 1.25 µM | lysis of bacteria and fungi (bacteria): lyse both gram negative bacteria and gram negative bacteria, as well as fungi | IC50 (Salmonella): 210 nM | Salmonella MIC (Salmonella): 0.7 µM | MIC (E. coli DH5a): 0.8 µM (≈ 1.76 µg/mL) | E. coli DH5a MIC (E. coli DH5a; pH 7.2): 0.8 µM | IC50 (E. coli DH5a; pH 7.2): 100 nM | B. cereus MIC (B. cereus [1]): 0.35 µM | IC50 (B. cereus [1]): 200 nM | % Survival (CFU Assay) (Staphylococcus aureus; 0.005 μM): 19.9% | % Survival (CFU Assay) (Staphylococcus aureus; 0.01 μM): 8.04% | % Survival (CFU Assay) (Staphylococcus aureus; 0.02 μM): 2.3% | % Survival (CFU Assay) (Staphylococcus aureus; 0.04 μM): 0.84% | % Survival (CFU Assay) (Staphylococcus aureus; 0.08 μM): 0.2% | % Survival (CFU Assay) (Staphylococcus aureus; 0.16 μM): 0.02% | % Survival (CFU Assay) (B. cereus [2]; 0.005 uM): 103.49% | % Survival (CFU Assay) (B. cereus [2]; 0.01 uM): 44.62% | % Survival (CFU Assay) (B. cereus [2]; 0.02 uM): <0.5% | % Survival (CFU Assay) (B. cereus [2]; 0.04 uM): 0.02% | % Survival (CFU Assay) (B. cereus [2]; 0.08 uM): 0.002% | % Survival (CFU Assay) (B. cereus [2]; 0.16 uM): 0.002% | % Survival (CFU Assay) (E. coli; 0.01 μM): 98.89% | % Survival (CFU Assay) (E. coli; 0.02 μM): 166.22% | % Survival (CFU Assay) (E. coli; 0.04 μM): 132.25% | % Survival (CFU Assay) (E. coli; 0.08 μM): 89.24% | % Survival (CFU Assay) (E. coli; 0.16 μM): 31.77% | % Survival (CFU Assay) (E. coli; 0.32 μM): 2.02% | % Survival (CFU Assay) (E. coli; 0.63 μM): <0.002% | % Survival (CFU Assay) (E. coli; 1.25 μM): <0.002% | % Survival (CFU Assay) (Salmonella typhimurium; 0.02 μM): 116.09% | % Survival (CFU Assay) (Salmonella typhimurium; 0.04 μM): 126.32% | % Survival (CFU Assay) (Salmonella typhimurium; 0.08 μM): 105% | % Survival (CFU Assay) (Salmonella typhimurium; 0.16 μM): 71.35% | % Survival (CFU Assay) (Salmonella typhimurium; 0.32 μM): 24.68% | % Survival (CFU Assay) (Salmonella typhimurium; 0.63 μM): 1.45% | % Survival (CFU Assay) (Salmonella typhimurium; 1.25 μM): 0.03% | % Survival (CFU Assay) (Salmonella typhimurium; 2.5 μM): <0.002% | killing of antibiotic resistant clinical isolates [3]: killed | activity against candida albicans SC5314 (candida albicans SC5314): active
